In patent publication US8962608B2, “Cycloalkylnitrile pyrazole carboxamides as janus kinase inhibitors” (Merck Sharp & Dohme Corp., priority 2011, dated 2015):
Counter-ions that a name gives are not always drawn.

Experiments:
[1] = biological target: JAK1 (recombinant purified GST-tagged catalytic domain) (Homo sapiens (Human), UniProt P23458); test: biochemical;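 note: biochemical assay with HTRF read-out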
[2] = biological target: JAK2 (recombinant purified GST-tagged catalytic domain) (Homo sapiens (Human), UniProt O60674); test: biochemical;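 note: biochemical JAK kinase assay with HTRF detection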
JAK2 (recombinant purified GST-tagged catalytic domain), sequence (O60674 849-1124): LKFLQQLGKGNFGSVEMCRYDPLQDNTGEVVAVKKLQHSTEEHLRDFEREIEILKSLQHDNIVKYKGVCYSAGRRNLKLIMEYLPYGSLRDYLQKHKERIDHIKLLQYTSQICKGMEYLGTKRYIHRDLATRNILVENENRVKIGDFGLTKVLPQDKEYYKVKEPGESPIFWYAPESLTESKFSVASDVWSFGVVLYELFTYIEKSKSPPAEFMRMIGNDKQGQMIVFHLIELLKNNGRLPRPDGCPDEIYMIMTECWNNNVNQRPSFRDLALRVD

JAK1 (recombinant purified GST-tagged catalytic domain), sequence (P23458 875-1153): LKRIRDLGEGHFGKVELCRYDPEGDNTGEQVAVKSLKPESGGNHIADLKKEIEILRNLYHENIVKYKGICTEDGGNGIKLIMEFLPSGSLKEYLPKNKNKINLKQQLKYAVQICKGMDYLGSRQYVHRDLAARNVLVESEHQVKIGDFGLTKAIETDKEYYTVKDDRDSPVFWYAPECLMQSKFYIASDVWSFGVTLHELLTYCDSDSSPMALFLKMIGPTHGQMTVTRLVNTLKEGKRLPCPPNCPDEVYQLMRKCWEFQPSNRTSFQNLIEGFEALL

SMILES	IC50 [1]	IC50 [2]
N#C[C@@H]1C[C@H](OCC2CC2)CC[C@@H]1n1cc(C(N)=O)c(Nc2ccnc(F)c2)n1 (single isomer, unassigned) [Example 26-4, 1-[(1S,2R,4R or 1R,2S,4S)-2-cyano-4-(cyclopropylmethoxy)cyclohexyl]-3-[(2-fluoropyridin-4-yl)amino]-1H-pyrazole-4-carboxamide]	21 nM	74 nM
CNC(=O)O[C@H]1CCC(n2cc(C(N)=O)c(Nc3ccc(F)cc3)n2)[C@@H](C#N)C1 (mixture of isomers) [Example 34-9, (1S,3S,4S and 1R,3R,4R)-4-{4-carbamoyl-3-[(4-fluorophenyl)aminol-1H-pyrazol-1-yl}-3-cyanocyclohexyl methylcarbamate]	3 nM	51 nM
N#C[C@H]1CCCC[C@@H]1n1cc(C(N)=O)c(Nc2ccc(F)c(F)c2)n1 (racemic) [Example 17-100, 1-[(1S,2S and 1R,2R)-2-cyanocyclohexyl]-3-[(3,4-difluorophenyl)amino]-1H-pyrazole-4-carboxamide]	4 nM	34 nM
N#C[C@H]1CCCC[C@@H]1n1cc(C(N)=O)c(Nc2cnc3cc(F)ccc3c2)n1 (single isomer, unassigned) [Example 17-41, 1-[(1S,2S or 1R,2R)-2-cyanocyclohexyl]-3-[(7-fluoroquinolin-3-yl)amino]-1H-pyrazole-4-carboxamide]	2 nM	16 nM
COC(C)(C)CN[C@H]1CCC(n2cc(C(N)=O)c(Nc3ccc(Cl)cc3)n2)[C@@H](C#N)C1 (single isomer, unassigned) [Example 28-228, 3-[(4-chlorophenyl)amino]-1-{(1S,2S,4S or 1R,2R,4R)-2-cyano-4-[(2-methoxy-2-methylpropyl)amino]cyclo-hexyl}-1H-pyrazole-4-carboxamide]	2 nM	48 nM
N#C[C@H]1C[C@@H](N[C@@H](C2CC2)C(F)(F)F)CC[C@@H]1n1cc(C(N)=O)c(Nc2ccc(C(F)(F)F)cc2)n1 (single isomer, unassigned) [Example 28-194, 1-[(1S,2S,4S or 1R,2R,4R)-2-cyano-4-{[(1S)-1-cyclopropyl-2,2,2-trifluoroethyl]amino}cyclo-hexyl]-3-{[4-(trifluoromethyl)phenyl]amino}-1H-pyrazole-4-carboxamide]	4 nM	152 nM
N#C[C@H]1C[C@@H](N)CCC1n1cc(C(N)=O)c(Nc2ccc(F)cc2)n1 (mixture of isomers) [Example 29, (1S,3S,4S and 1R,3R,4R)-4-{4-Carbamoyl-3-[(4-fluorophenyl)amino]-1H-pyrazol-1-yl}-3-cyanocyclohexanaminium trifluoroacetate]	1 nM	35 nM
N#C[C@H]1C[C@@H](N2CC(F)C2)CC[C@@H]1n1cc(C(N)=O)c(Nc2ccc(S(=O)(=O)C(F)(F)F)cc2)n1 (single isomer, unassigned) [Example 28-113, 1-[(1S,2S,4S or 1R,2R,4R)-2-cyano-4-(3-fluoroazetidin-1-yl)cyclohexyl]-3-({4-[(trifluoro-methyl)sulfonyl]phenyl}amino)-1H-pyrazole-4-carboxamide]	1 nM	13 nM
CC(C)(O)C1CN(C(=O)[C@H]2CC[C@H](n3cc(C(N)=O)c(Nc4ccc(Cl)cc4)n3)[C@@H](C#N)C2)C1 (single isomer, unassigned) [Example 35-9, 3-[(4-chlorophenyl)amino]-1-[(1S,2S,4S or 1R,2R,4R)-2-cyano-4-{[3-(1-hydroxy-1-methylethyl)azetidin-1-yl]carbonyl}cyclohexyl}-1H-pyrazole-4-carboxamide]	30 nM	315 nM
N#C[C@H]1CCCC[C@@H]1n1cc(C(N)=O)c(Nc2cnc3ccc(Cl)cc3c2)n1 (single isomer, unassigned) [Example 17-60, 3-[(6-chloroquinolin-3-yl)amino]-1-[(1S,2S or 1R,2R)-2-cyanocyclohexyl]-1H-pyrazole-4-carboxamide]	6 nM	23 nM
N#C[C@H]1CCCC[C@@H]1n1cc(C(N)=O)c(Nc2ccnc(C(F)(F)F)c2)n1 (racemic) [Example 17-3, 1-[(1S,2S and 1R,2R)-2-Cyanocyclohexyl]-3-{[2-(trifluoromethyl)pyridin-4-yl]amino}-1H-pyrazole-4-carboxamide]	19 nM	123 nM
N#C[C@H]1CCCC[C@@H]1n1cc(C(N)=O)c(Nc2ccc(S(=O)(=O)NCc3ccc(Cl)cc3)cc2)n1 (single isomer, unassigned) [Example 17-90, 3-({4-[(4-chlorobenzyl)sulfamoyl]phenyl}amino)-1-[(1R,2R or 1S,2S)-2-cyanocyclohexyl]-1H-pyrazole-4-carboxamide]	1 nM	4 nM
N#C[C@H]1CC[C@@H](O)CC1n1cc(C(N)=O)c(Nc2ccccc2)n1 (mixture of isomers) [Example 2-13, 1-[(1S,2S,5R and 1R,2R,5S)-2-cyano-5-hydroxycyclohexyl]-3-(phenylamino)-1H-pyrazole-4-carboxamide]	27 nM	185 nM
N#C[C@@H]1C[C@@H](NC2CC3(CCCC3)C2)CC[C@H]1n1cc(C(N)=O)c(Nc2ccc(C(F)(F)F)cc2)n1 (single isomer, unassigned) [Example 30-5, 1-[(1R,2R,4S or 1S,2S,4R)-2-cyano-4-(spiro[3.4]oct-2-ylamino)cyclohexyl]-3-{[4-(trifluoromethyl)phenyl]amino}-1H-pyrazole-4-carboxamide]	21 nM	665 nM
N#C[C@@H]1CCC[C@@H](O)C1n1cc(C(N)=O)c(Nc2ccccc2)n1 (mixture of isomers) [Example 2-5, 1-[(1R,2R,6R and 1S,2S,6S)-2-cyano-6-hydroxycyclohexyl]-3-(phenylamino)-1H-pyrazole-4-carboxamide]	700 nM	> 1500 nM
N#C[C@H]1C[C@H](OCC2CC2)CC[C@H]1n1cc(C(N)=O)c(Nc2ccnc(F)c2)n1 (single isomer, unassigned) [Example 26-3, 1-[(1R,2S,4R or 1S,2R,4S)-2-cyano-4-(cyclopropylmethoxy)cyclohexyl]-3-[(2-fluoropyridin-4-yl)amino]-1H-pyrazole-4-carboxamide]	69 nM	150 nM
N#C[C@H]1C[C@@H](C(=O)NCC(F)(F)F)CC[C@@H]1n1cc(C(N)=O)c(Nc2ccc(Cl)cc2)n1 (single isomer, unassigned) [Example 35-22, 3-[(4-chlorophenyl)amino]-1-{(1S,2S,4S or 1R,2R,4R)-2-cyano-4-[(2,2,2-trifluoroethyl)carbamoyl]cyclohexyl}-1H-pyrazole-4-carboxamide]	7 nM	218 nM
N#C[C@H]1C[C@@H](N2C[C@@H]3[C@@H](CO)[C@@H]3C2)CC[C@@H]1n1cc(C(N)=O)c(Nc2ccc(C(F)(F)F)cc2)n1 (single isomer, unassigned) [Example 28-34, 1-{(1S,2S,4S or 1R,2R,4R)-2-cyano-4-[(1R,5S,6S or 1S,5R,6R)-6-(hydroxymethyl)-3-azabicyclo[3.1.0]hex-3-yl]cyclohexyl}-3-{[4-(trifluoromethyl)phenyl]amino}-1H-pyrazole-4-carboxamide]	0.6 nM	20 nM
COC(=O)c1ncc(Nc2nn([C@H]3CCCC[C@@H]3C#N)cc2C(N)=O)cc1C (single isomer, unassigned) [Example 17-78, methyl 5-({4-carbamoyl-1-[(1R,2R or 1S,2S)-2-cyanocyclohexyl]-1H-pyrazol-3-yl}amino)-3-methylpyridine-2-carboxylate]	6 nM	17 nM
CC(=O)c1ccc(Nc2nn([C@H]3CC[C@H](N4CCC4)C[C@@H]3C#N)cc2C(N)=O)cc1 (single isomer, unassigned) [Example 28-84, 3-[(4-acetylphenyl)amino]-1-[(1S,2S,4S or 1R,2R,4R)-4-azetidin-1-yl-2-cyanocyclohexyl]-1H-pyrazole-4-carboxamide]	0.3 nM	9 nM
N#C[C@H]1C[C@H](N(CC2CC2)CC2CC2)CC[C@@H]1n1cc(C(N)=O)c(Nc2ccc(C(F)(F)F)cc2)n1 (single isomer, unassigned) [Example 30-15, l-{(1S,2S,4R or 1R,2R,4S)-4-[bis(cyclopropylmethyl)amino]-2-cyanocyclohexyl}-3-{[4-(trifluoromethyl)phenyl]amino}-1H-pyrazole-4-carboxamide]	260 nM	> 1500 nM
N#C[C@H]1C[C@@H](NC(C2CC2)C2CC2)CC[C@@H]1n1cc(C(N)=O)c(Nc2ccc(S(=O)(=O)C(F)(F)F)cc2)n1 (single isomer, unassigned) [Example 28-180, 1-{(1S,2S,4S or 1R,2R,4R)-2-cyano-4-[(dicyclopropyl-methyl)amino]cyclohexyl}-3-({4-[(trifluoro-methyl)sulfonyl]phenyl}amino)-1H-pyrazole-4-carboxamide]	0.6 nM	39 nM
N#C[C@@H]1C[C@@H](NC2CCC2)CC[C@H]1n1cc(C(N)=O)c(Nc2ccc(C(F)(F)F)cc2)n1 (single isomer, unassigned) [Example 30-18, 1-[(1R,2R,4S or 1S,2S,4R)-2-cyano-4-(cyclobutyl-amino)cyclohexyl]-3-{[4-(trifluoromethyl)phenyl]amino}-1H-pyrazole-4-carboxamide]	2 nM	136 nM
N#C[C@H]1C[C@@H](C(=O)NC2CC2)CC[C@@H]1n1cc(C(N)=O)c(Nc2ccc(Cl)cc2)n1 (single isomer, unassigned) [Example 35-23, 3-[(4-chlorophenyl)amino]-1-[(1S,2S,4S or 1R,2R,4R)-2-cyano-4-(cyclopropylcarbamoyl)cyclohexyl]-1H-pyrazole-4-carboxamide]	37 nM	295 nM
N#C[C@@H]1C[C@H](C(=O)NCC(F)(F)F)CCC1n1cc(C(N)=O)c(Nc2ccc(Cl)cc2)n1 (single isomer, unassigned) [Example 35-10, 3-[(4-chlorophenyl)amino]-1-{(1R,2R,4R or 1S,2S,4S)-2-cyano-4-[(2,2,2-trifluoroethyl)carbamoyl]cyclohexyl}-1H-pyrazole-4-carboxamide]	3 nM	38 nM
